Legend:
[1] = Inhibition of hedgehog signaling pathway-mediated differentiation of mouse C3H10T1/2 cells assessed as decrease in SAG-induced ALP activity after 6 days by chemiluminescence-based assay; conditions: C3H 10T1/2, 144 h
LS180 = assay: Antiproliferative activity against human LS180 cells after 72 hrs by sulforhodamine-B assay; format: functional, cell-based; conditions: for IC50: LS180, 72 h
HT-1080 = assay: Antiproliferative activity against human HT1080 cells after 72 hrs by sulforhodamine-B assay; format: functional, cell-based; conditions: for IC50: HT-1080, 72 h
Homo sapiens = organism: Homo sapiens; assay: Substrate activity at recombinant human P-gp in membrane fraction assessed as increase in ATPase activity at 10 uM by luminescent P-gp-Glo assay relative to control
CYP1A2 [2] = target: T1, CYP1A2 (Homo sapiens, UniProt P05177); assay: Inhibition of recombinant human CYP1A2 expressed in insect cell microsomes at 1 uM using Luciferin-ME as substrate preincubated for 10 mins followed by NADPH addition measured after 30 mins by luminometric method; format: ADME; conditions: probe Luciferin-ME
T1 sequence (P05177 whole entry): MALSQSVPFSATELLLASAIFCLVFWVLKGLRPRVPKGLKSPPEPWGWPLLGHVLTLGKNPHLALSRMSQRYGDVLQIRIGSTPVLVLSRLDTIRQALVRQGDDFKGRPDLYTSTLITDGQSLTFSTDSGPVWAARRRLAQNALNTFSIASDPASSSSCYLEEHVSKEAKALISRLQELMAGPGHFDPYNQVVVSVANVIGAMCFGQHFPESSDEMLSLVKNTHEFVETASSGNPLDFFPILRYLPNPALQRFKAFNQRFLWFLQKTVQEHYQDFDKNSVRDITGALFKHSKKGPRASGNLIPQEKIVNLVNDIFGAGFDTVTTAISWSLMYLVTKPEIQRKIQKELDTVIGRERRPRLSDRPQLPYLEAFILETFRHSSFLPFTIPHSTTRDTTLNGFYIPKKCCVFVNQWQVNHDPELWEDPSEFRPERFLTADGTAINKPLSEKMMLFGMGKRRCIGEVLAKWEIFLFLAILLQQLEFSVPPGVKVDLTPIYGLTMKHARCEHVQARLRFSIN

CYP3A4 [3] = target: T2, CYP3A4 (Homo sapiens, UniProt P08684); assay: Inhibition of recombinant human CYP3A4 expressed in insect cell microsomes at 1 uM using Luciferin-IPA as substrate preincubated for 10 mins followed by NADPH addition measured after 10 mins by luminometric method; format: ADME; conditions: probe Luciferin-IPA
CYP1A2 [4] = target: T1, CYP1A2; assay: Inhibition of recombinant human CYP1A2 expressed in insect cell microsomes at 10 uM using Luciferin-ME as substrate preincubated for 10 mins followed by NADPH addition measured after 30 mins by luminometric method; format: ADME; conditions: probe Luciferin-ME
CYP3A4 [5] = target: T2, CYP3A4; assay: Inhibition of recombinant human CYP3A4 expressed in insect cell microsomes at 5 uM using Luciferin-IPA as substrate preincubated for 10 mins followed by NADPH addition measured after 10 mins by luminometric method; format: ADME; conditions: probe Luciferin-IPA
CYP3A4 [6] = target: T2, CYP3A4; assay: Inhibition of recombinant human CYP3A4 expressed in insect cell microsomes at 10 uM using Luciferin-IPA as substrate preincubated for 10 mins followed by NADPH addition measured after 10 mins by luminometric method; format: ADME; conditions: probe Luciferin-IPA
CYP2C9 [7] = target: T3, CYP2C9 (Homo sapiens, UniProt P11712); assay: Inhibition of recombinant human CYP2C9 expressed in insect cell microsomes at 1 uM using Luciferin-H as substrate preincubated for 30 mins followed by NADPH addition measured after 30 mins by luminometric method; format: ADME; conditions: probe Luciferin-H
CYP2C9 [8] = target: T3, CYP2C9; assay: Inhibition of recombinant human CYP2C9 expressed in insect cell microsomes at 5 uM using Luciferin-H as substrate preincubated for 30 mins followed by NADPH addition measured after 30 mins by luminometric method; format: ADME; conditions: probe Luciferin-H
CYP2C9 [9] = target: T3, CYP2C9; assay: Inhibition of recombinant human CYP2C9 expressed in insect cell microsomes at 10 uM using Luciferin-H as substrate preincubated for 30 mins followed by NADPH addition measured after 30 mins by luminometric method; format: ADME; conditions: probe Luciferin-H
CYP2C19 [10] = target: T4, CYP2C19 (Homo sapiens, UniProt P33261); assay: Inhibition of recombinant human CYP2C19 expressed in insect cell microsomes at 5 uM using Luciferin-H EGE as substrate preincubated for 20 mins followed by NADPH addition measured after 30 mins by luminometric method; format: ADME; conditions: probe Luciferin-H EGE
CYP2C19 [11] = target: T4, CYP2C19; assay: Inhibition of recombinant human CYP2C19 expressed in insect cell microsomes at 10 uM using Luciferin-H EGE as substrate preincubated for 20 mins followed by NADPH addition measured after 30 mins by luminometric method; format: ADME; conditions: probe Luciferin-H EGE
CYP2D6 = CYP2D6 (Homo sapiens, UniProt P10635); assay: Inhibition of recombinant human CYP2D6 expressed in insect cell microsomes at 5 uM using Luciferin-ME EGE as substrate preincubated for 30 mins followed by NADPH addition measured after 45 mins by luminometric method; format: ADME; conditions: probe Luciferin-ME EGE
Cytochrome P450 3A4 = Cytochrome P450 3A4 (Homo sapiens, UniProt P08684); assay: Inhibition of recombinant human CYP3A4 expressed in insect cell microsomes using Luciferin-IPA as substrate preincubated for 10 mins followed by NADPH addition measured after 10 mins by luminometric method; format: ADME; conditions: recombinant enzyme
[12] = Tmax in CD1 mouse at 200 mg/kg, po administered as single dose by HPLC-MS/MS analysis; format: ADME, organism-based; conditions: in vivo
[13] = AUClast in CD1 mouse at 200 mg/kg, po administered as single dose by HPLC-MS/MS analysis; format: ADME, organism-based; parameters: dose 200 mg/kg, time 0 - last, route oral; conditions: in vivo
Mus musculus [14] = assay: Tlast in CD1 mouse at 200 mg/kg, po administered as single dose by HPLC-MS/MS analysis; format: ADME, organism-based; conditions: in vivo
[15] = Apparent clearance in CD1 mouse at 200 mg/kg, po administered as single dose by HPLC-MS/MS analysis; format: ADME, organism-based; conditions: in vivo
[16] = target: T5, Coelenterazine h 2-monooxygenase (Renilla reniformis, UniProt P27652); assay: Effect on Renilla reniformis luciferase; format: ADME
T5 sequence (P27652 whole entry): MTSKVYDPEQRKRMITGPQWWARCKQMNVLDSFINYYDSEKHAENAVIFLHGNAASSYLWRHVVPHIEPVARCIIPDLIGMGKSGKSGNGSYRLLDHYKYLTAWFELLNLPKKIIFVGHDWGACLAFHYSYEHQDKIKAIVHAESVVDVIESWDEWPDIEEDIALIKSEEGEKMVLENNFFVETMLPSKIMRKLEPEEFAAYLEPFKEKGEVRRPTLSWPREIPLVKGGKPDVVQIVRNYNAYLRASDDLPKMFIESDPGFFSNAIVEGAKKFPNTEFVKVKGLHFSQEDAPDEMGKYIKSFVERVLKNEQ

in vitro [17] = conditions: human, Caco-2
Description: Apparent permeability of the compound from apical to basolateral side in human Caco2 cells after 120 mins by LC-MS/MS analysis

in vitro [18] = conditions: human, Caco-2; remark: listed apart in the source
Description: Apparent permeability of the compound from basolateral to apical side in human Caco2 cells assessed as drug recovery after 120 mins by LC-MS/MS analysis

in vitro [19] = conditions: human, Caco-2; remark: listed apart in the source
Description: Efflux ratio of apparent permeability from basolateral to apical over apical to basolateral side in human Caco2 cells after 120 mins by LC-MS/MS analysis

[20] = Inhibition of hedgehog signaling pathway in mouse Light2 cells stimulated with 100 nM SAG after 30 hrs by Gli-firefly luciferase reporter gene assay
Mus musculus [21] = organism: Mus musculus; assay: as above

T4 sequence (P33261 whole entry): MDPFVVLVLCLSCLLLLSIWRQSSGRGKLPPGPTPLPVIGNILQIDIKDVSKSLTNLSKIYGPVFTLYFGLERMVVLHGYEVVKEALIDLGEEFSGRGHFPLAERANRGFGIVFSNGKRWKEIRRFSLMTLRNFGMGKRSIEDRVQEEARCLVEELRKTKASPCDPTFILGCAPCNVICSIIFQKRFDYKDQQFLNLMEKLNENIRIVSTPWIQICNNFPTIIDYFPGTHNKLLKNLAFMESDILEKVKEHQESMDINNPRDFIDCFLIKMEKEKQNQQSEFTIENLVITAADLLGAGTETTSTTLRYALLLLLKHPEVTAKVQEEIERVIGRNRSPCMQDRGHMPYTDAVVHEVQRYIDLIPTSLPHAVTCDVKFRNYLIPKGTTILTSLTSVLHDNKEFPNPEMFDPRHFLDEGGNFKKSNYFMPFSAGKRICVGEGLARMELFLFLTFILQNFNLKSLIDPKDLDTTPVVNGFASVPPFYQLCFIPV
T2 sequence (P08684 whole entry): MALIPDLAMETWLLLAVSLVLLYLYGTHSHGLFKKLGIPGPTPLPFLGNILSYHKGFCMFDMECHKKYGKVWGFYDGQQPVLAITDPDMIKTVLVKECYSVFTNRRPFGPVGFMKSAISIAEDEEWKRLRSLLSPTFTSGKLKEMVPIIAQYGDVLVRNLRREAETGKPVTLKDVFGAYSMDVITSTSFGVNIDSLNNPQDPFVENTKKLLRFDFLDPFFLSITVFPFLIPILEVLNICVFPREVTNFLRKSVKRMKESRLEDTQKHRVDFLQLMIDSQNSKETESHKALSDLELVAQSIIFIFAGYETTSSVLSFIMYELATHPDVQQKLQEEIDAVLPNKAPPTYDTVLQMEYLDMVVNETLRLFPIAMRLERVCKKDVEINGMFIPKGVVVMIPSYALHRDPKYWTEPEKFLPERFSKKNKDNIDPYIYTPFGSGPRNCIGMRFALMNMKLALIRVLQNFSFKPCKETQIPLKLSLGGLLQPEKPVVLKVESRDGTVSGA
T3 sequence (P11712 whole entry): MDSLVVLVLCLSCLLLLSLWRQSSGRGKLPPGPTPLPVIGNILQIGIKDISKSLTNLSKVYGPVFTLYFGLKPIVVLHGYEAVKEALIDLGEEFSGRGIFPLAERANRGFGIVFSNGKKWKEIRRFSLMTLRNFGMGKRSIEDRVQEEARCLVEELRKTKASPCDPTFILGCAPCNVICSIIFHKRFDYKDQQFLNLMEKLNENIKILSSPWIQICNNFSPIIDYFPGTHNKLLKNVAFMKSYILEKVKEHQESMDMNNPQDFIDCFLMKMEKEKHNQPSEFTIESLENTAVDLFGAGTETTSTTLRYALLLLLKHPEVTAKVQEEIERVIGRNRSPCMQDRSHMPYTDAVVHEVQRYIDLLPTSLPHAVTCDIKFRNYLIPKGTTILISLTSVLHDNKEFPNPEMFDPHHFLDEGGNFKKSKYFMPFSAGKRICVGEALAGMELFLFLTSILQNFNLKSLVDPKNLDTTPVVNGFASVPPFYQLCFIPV
Chain of CYP2D6 (P10635 whole entry): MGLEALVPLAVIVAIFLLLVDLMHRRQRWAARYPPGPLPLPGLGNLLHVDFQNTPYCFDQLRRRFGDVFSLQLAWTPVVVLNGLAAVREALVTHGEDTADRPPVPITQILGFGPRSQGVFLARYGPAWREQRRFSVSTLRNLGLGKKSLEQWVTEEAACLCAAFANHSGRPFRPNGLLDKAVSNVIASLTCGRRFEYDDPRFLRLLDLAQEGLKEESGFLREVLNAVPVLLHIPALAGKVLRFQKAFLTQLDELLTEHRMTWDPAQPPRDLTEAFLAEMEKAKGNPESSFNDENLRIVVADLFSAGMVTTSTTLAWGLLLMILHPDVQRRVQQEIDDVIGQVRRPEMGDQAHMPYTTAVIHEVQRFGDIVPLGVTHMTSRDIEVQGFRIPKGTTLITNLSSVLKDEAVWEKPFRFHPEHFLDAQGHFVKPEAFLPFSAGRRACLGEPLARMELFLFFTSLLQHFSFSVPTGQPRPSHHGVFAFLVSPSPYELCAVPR
Chain of Cytochrome P450 3A4 (P08684 whole entry): as the sequence (P08684 whole entry) above

SMILES | IC50 [1] | Activity (LS180) | IC50 (LS180) | Activity (HT-1080) | IC50 (HT-1080) | fold change (FC) (Homo sapiens) | inhibition at 0.5 h, 1 µM (CYP1A2 [2]) | inhibition at 10 min, 1 µM (CYP3A4 [3]) | inhibition at 0.5 h, 10 µM (CYP1A2 [4]) | inhibition at 10 min, 5 µM (CYP3A4 [5]) | inhibition at 10 min, 10 µM (CYP3A4 [6]) | inhibition at 0.5 h, 1 µM (CYP2C9 [7]) | inhibition at 0.5 h, 5 µM (CYP2C9 [8]) | inhibition at 0.5 h, 10 µM (CYP2C9 [9]) | inhibition at 0.5 h, 5 µM (CYP2C19 [10]) | inhibition at 0.5 h, 10 µM (CYP2C19 [11]) | inhibition at 0.75 h, 5 µM (CYP2D6) | inhibition (INH) (Cytochrome P450 3A4) | Tmax [12] | AUC(0-t) [13] | other results
COc1cc(C(=O)NC(=N)Nc2ccc(C)c(NC(=O)c3ccc(CCc4ccccc4)cc3)c2)cc(OC)c1OC.Cl | 40 nM | Dose-dependent effect | 2500 nM | Dose-dependent effect | 2000 nM | 1.4 | 29% | 76% | 40% | 89% | 92% | 68% | 81% | 83% | 81% | 83% | 12% | Dose-dependent effect | 4 h | 137 µg·h/mL | Tlast (Mus musculus [14]): 24 h; CL/F [15]: 24.3 mL/min/kg; Activity [16]: Not Active; Papp A→B at 2 h (in vitro [17]): 0.701 ×10⁻⁶ cm/s; recovery at 2 h (in vitro [18]): 44.6%; efflux ratio at 2 h (in vitro [19]): 1.05; IC50 [20]: 20 nM; inhibition (Mus musculus [21]): Dose-dependent effect
COc1cc(C(=O)NC(=N)Nc2ccc(C)c(NC(=O)c3ccc(-c4ccccc4)cc3)c2)cc(OC)c1OC.Cl | 60 nM | Dose-dependent effect | 9700 nM | Dose-dependent effect | 29000 nM | 4.8 | 49% | 38% | 64% | 76% | 87% | 43% | 71% | 74% | 79% | 81% | 29% | Dose-dependent effect | 2 h | 237 µg·h/mL | Tlast (Mus musculus [14]): 24 h; CL/F [15]: 14 mL/min/kg; Activity [16]: Not Active; Papp A→B at 2 h (in vitro [17]): 0.428 ×10⁻⁶ cm/s; recovery at 2 h (in vitro [18]): 31.9%; efflux ratio at 2 h (in vitro [19]): 1.52; IC50 [20]: 70 nM; inhibition (Mus musculus [21]): Dose-dependent effect
